Source: ChEMBL document CHEMBL1201862, “PubChem BioAssay data set” (2004)
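A five-concentration, 48-hour dose response in 96-well plates underlies each endpoint, interpolated linearly between surrounding concentrations. GI50 = concentration required for 50% inhibition of growth.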 Active and inactive are the calls of the source. No stated cut-off is given here; in the data, active = GI50 up to about 1.1 µM and inactive = higher.

What was measured:
Test in all cases: DTP human tumour cell line panel, 48 h
786-0 = tested on: 786-0
A549 = tested on: A549
ACHN = tested on: ACHN
COLO 205 = tested on: COLO 205
HCC 2998 = tested on: HCC 2998
HT-29 = tested on: HT-29
IGROV-1 = tested on: IGROV-1
MDA-MB-435 = tested on: MDA-MB-435
OVCAR-3 = tested on: OVCAR-3
OVCAR-4 = tested on: OVCAR-4
OVCAR-8 = tested on: OVCAR-8
RPMI-8226 = tested on: RPMI-8226
SF-268 = tested on: SF-268
SF-539 = tested on: SF-539
SK-MEL-28 = tested on: SK-MEL-28
SK-MEL-2 = tested on: SK-MEL-2
SN12C = tested on: SN12C
SR = tested on: SR
U-251 = tested on: U-251
EKVX = tested on: EKVX

`CC(=O)OCC12C(=O)C[C@@H](C)C3(CC(c4ccoc4)OC3=O)C1CCC(OC(C)=O)C21CO1` (some centres not stated) was tested, and the GI50 (786-0) was > 100 µM (inactive), the GI50 (A549) was > 100 µM (inactive) and the GI50 (ACHN) was > 100 µM (inactive). The GI50 (COLO 205) was > 100 µM (inactive), the GI50 (HCC 2998) was > 100 µM (inactive) and the GI50 (HT-29) was > 100 µM (inactive). For the same molecule, the GI50 (IGROV-1) was > 100 µM (inactive), the GI50 (MDA-MB-435) was > 100 µM (inactive) and the GI50 (OVCAR-3) was > 100 µM (inactive). For the same molecule, the GI50 (OVCAR-4) was > 100 µM (inactive), the GI50 (OVCAR-8) was > 100 µM (inactive) and the GI50 (RPMI-8226) was > 100 µM (inactive). For the same molecule, the GI50 (SF-268) was > 100 µM (inactive), the GI50 (SF-539) was > 100 µM (inactive) and the GI50 (SK-MEL-28) was > 100 µM (inactive). The GI50 (SK-MEL-2) was > 100 µM (inactive), the GI50 (SN12C) was > 100 µM (inactive) and the GI50 (SR) was > 100 µM (inactive). For the same molecule, the GI50 (U-251) was > 100 µM (inactive).
For `COc1cc2cc(C(=O)N3CC(CCl)c4c3cc(NCCN)c3ccccc43)[nH]c2c(OC)c1OC` (configuration not stated), the GI50 (786-0) was < 0.01 µM (active), the GI50 (A549) was < 0.01 µM (active) and the GI50 (ACHN) was < 0.01 µM (active). The GI50 (COLO 205) was 0.0112 µM (active), the GI50 (EKVX) was < 0.0126 µM (active) and the GI50 (HCC 2998) was < 0.01 µM (active). For the same molecule, the GI50 (IGROV-1) was < 0.01 µM (active), the GI50 (MDA-MB-435) was < 0.01 µM (active) and the GI50 (OVCAR-3) was 0.0123 µM (active). The GI50 (OVCAR-4) was 0.0116 µM (active), the GI50 (OVCAR-8) was < 0.01 µM (active) and the GI50 (RPMI-8226) was < 0.01 µM (active). For the same molecule, the GI50 (SF-268) was < 0.01 µM (active), the GI50 (SF-539) was < 0.01 µM (active) and the GI50 (SK-MEL-28) was 0.0134 µM (active). The GI50 (SK-MEL-2) was < 0.01 µM (active), the GI50 (SN12C) was < 0.01 µM (active) and the GI50 (SR) was < 0.01 µM (active). For the same molecule, the GI50 (U-251) was < 0.01 µM (active).
In the case of `CCC1(CC)C(=O)OC(=O)C1(CC)CC`, the GI50 (786-0) is reported as > 100 µM (inactive), the GI50 (A549) is reported as > 100 µM (inactive) and the GI50 (ACHN) is reported as > 100 µM (inactive). For the same molecule, the GI50 (COLO 205) was > 100 µM (inactive), the GI50 (EKVX) was > 100 µM (inactive) and the GI50 (HCC 2998) was > 100 µM (inactive). For the same molecule, the GI50 (HT-29) was > 100 µM (inactive), the GI50 (IGROV-1) was > 100 µM (inactive) and the GI50 (MDA-MB-435) was > 100 µM (inactive). For the same molecule, the GI50 (OVCAR-3) was > 100 µM (inactive), the GI50 (OVCAR-4) was > 100 µM (inactive) and the GI50 (OVCAR-8) was > 100 µM (inactive). The GI50 (RPMI-8226) was > 100 µM (inactive), the GI50 (SF-268) was > 100 µM (inactive) and the GI50 (SF-539) was > 100 µM (inactive). For the same molecule, the GI50 (SK-MEL-28) was > 100 µM (inactive), the GI50 (SK-MEL-2) was > 100 µM (inactive) and the GI50 (SR) was > 100 µM (inactive). For the same molecule, the GI50 (U-251) was > 100 µM (inactive).
In the case of `O=C(NN=C1NCCCCN1)Nc1ccc(Cl)cc1`, the GI50 (786-0) is reported as > 100 µM (inactive), the GI50 (A549) is reported as > 100 µM (inactive) and the GI50 (ACHN) is reported as > 100 µM (inactive). The GI50 (COLO 205) was > 100 µM (inactive), the GI50 (EKVX) was > 100 µM (inactive) and the GI50 (HCC 2998) was > 100 µM (inactive). For the same molecule, the GI50 (HT-29) was > 100 µM (inactive), the GI50 (IGROV-1) was > 100 µM (inactive) and the GI50 (MDA-MB-435) was > 100 µM (inactive). For the same molecule, the GI50 (OVCAR-3) was > 100 µM (inactive), the GI50 (OVCAR-4) was > 100 µM (inactive) and the GI50 (OVCAR-8) was > 100 µM (inactive). For the same molecule, the GI50 (RPMI-8226) was 45.1 µM (inactive), the GI50 (SF-268) was 93.1 µM (inactive) and the GI50 (SF-539) was > 100 µM (inactive). The GI50 (SK-MEL-28) was > 100 µM (inactive), the GI50 (SK-MEL-2) was > 100 µM (inactive) and the GI50 (SR) was 22.8 µM (inactive). For the same molecule, the GI50 (U-251) was > 100 µM (inactive).
In the case of `Cc1ccc(/C(=C\C(=O)C(=O)NC23CC4CC(CC(C4)C2)C3)Sc2ccccc2)cc1`, the GI50 (786-0) is reported as > 10 µM (inactive), the GI50 (ACHN) is reported as > 10 µM (inactive) and the GI50 (COLO 205) is reported as 3.5 µM (inactive). For the same molecule, the GI50 (EKVX) was > 10 µM (inactive), the GI50 (HCC 2998) was > 10 µM (inactive) and the GI50 (HT-29) was > 10 µM (inactive). The GI50 (IGROV-1) was > 10 µM (inactive), the GI50 (MDA-MB-435) was > 10 µM (inactive) and the GI50 (OVCAR-3) was > 10 µM (inactive). For the same molecule, the GI50 (OVCAR-4) was 6.43 µM (inactive), the GI50 (OVCAR-8) was > 10 µM (inactive) and the GI50 (RPMI-8226) was 9.02 µM (inactive). For the same molecule, the GI50 (SF-268) was > 10 µM (inactive), the GI50 (SF-539) was > 10 µM (inactive) and the GI50 (SK-MEL-28) was > 10 µM (inactive). The GI50 (SK-MEL-2) was > 10 µM (inactive), the GI50 (SN12C) was > 10 µM (inactive) and the GI50 (SR) was > 10 µM (inactive). The GI50 (U-251) was > 10 µM (inactive).
`COc1cccc2c(NNc3ccc(Cl)cc3)c3ccc([N+](=O)[O-])cc3nc12` was tested, and the GI50 (786-0) was 8.97 µM (inactive), the GI50 (A549) was 12.6 µM (inactive) and the GI50 (ACHN) was 5.68 µM (inactive). For the same molecule, the GI50 (COLO 205) was 21.6 µM (inactive), the GI50 (EKVX) was 12.5 µM (inactive) and the GI50 (HCC 2998) was 13.8 µM (inactive). For the same molecule, the GI50 (HT-29) was 14.2 µM (inactive), the GI50 (MDA-MB-435) was 29.7 µM (inactive) and the GI50 (OVCAR-3) was 12.5 µM (inactive). For the same molecule, the GI50 (OVCAR-4) was 11.9 µM (inactive), the GI50 (RPMI-8226) was 14.3 µM (inactive) and the GI50 (SF-268) was 12.7 µM (inactive). For the same molecule, the GI50 (SF-539) was 17.7 µM (inactive), the GI50 (SK-MEL-28) was 39.7 µM (inactive) and the GI50 (SK-MEL-2) was 13 µM (inactive). The GI50 (SN12C) was 20.8 µM (inactive), the GI50 (SR) was 1.08 µM (active) and the GI50 (U-251) was 11.7 µM (inactive).
In the case of `CC1=CC(=O)c2cccc(NC3=NCCO3)c21`, the GI50 (786-0) is reported as 86.5 µM (inactive), the GI50 (A549) is reported as 81.7 µM (inactive) and the GI50 (ACHN) is reported as 86.7 µM (inactive). The GI50 (COLO 205) was 41.1 µM (inactive), the GI50 (EKVX) was > 100 µM (inactive) and the GI50 (HCC 2998) was 33.4 µM (inactive). The GI50 (HT-29) was 34 µM (inactive), the GI50 (IGROV-1) was 36.1 µM (inactive) and the GI50 (MDA-MB-435) was 31.6 µM (inactive). For the same molecule, the GI50 (OVCAR-3) was 25.4 µM (inactive), the GI50 (OVCAR-4) was 78.7 µM (inactive) and the GI50 (RPMI-8226) was 45.1 µM (inactive). For the same molecule, the GI50 (SF-268) was > 100 µM (inactive), the GI50 (SF-539) was 46.8 µM (inactive) and the GI50 (SK-MEL-28) was 78.7 µM (inactive). For the same molecule, the GI50 (SK-MEL-2) was 97.1 µM (inactive), the GI50 (SN12C) was 52.7 µM (inactive) and the GI50 (SR) was 38.2 µM (inactive). The GI50 (U-251) was 64 µM (inactive).
